Measured values published in patent publication US8354402B2, “Polyarylcarboxamides useful as lipid lowering agents” (Janssen Pharmaceutica N.V., priority 2000, dated 2013).

Key:
[1] = tested on: ApoB secretion, HepG2 cells; experiment: Quantification of the secretion of ApoB (HepG2 cells, immunoprecipitation, scintillation counting); type: cell-based; settings: Homo sapiens, HepG2, 24 h, 24 hours of incubation
Procedure, shortened: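 HepG2 cells in MEM Rega 3 with 10% FCS were treated at 70% confluency with compound (DMSO 0.4% final) for 24 h. Medium ApoB was immunoprecipitated with sheep anti-apoB then rabbit anti-sheep antibody (24 h each, 8° C), and pellet radioactivity was counted by liquid scintillation to give IC50.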

MTP = MTP (Homo sapiens, UniProt P55157); experiment: MTP assay (triglyceride transfer from donor to acceptor vesicles); type: biochemical; settings: MTP activity, 37° C.
MTP, sequence (P55157 19-894, species assumed): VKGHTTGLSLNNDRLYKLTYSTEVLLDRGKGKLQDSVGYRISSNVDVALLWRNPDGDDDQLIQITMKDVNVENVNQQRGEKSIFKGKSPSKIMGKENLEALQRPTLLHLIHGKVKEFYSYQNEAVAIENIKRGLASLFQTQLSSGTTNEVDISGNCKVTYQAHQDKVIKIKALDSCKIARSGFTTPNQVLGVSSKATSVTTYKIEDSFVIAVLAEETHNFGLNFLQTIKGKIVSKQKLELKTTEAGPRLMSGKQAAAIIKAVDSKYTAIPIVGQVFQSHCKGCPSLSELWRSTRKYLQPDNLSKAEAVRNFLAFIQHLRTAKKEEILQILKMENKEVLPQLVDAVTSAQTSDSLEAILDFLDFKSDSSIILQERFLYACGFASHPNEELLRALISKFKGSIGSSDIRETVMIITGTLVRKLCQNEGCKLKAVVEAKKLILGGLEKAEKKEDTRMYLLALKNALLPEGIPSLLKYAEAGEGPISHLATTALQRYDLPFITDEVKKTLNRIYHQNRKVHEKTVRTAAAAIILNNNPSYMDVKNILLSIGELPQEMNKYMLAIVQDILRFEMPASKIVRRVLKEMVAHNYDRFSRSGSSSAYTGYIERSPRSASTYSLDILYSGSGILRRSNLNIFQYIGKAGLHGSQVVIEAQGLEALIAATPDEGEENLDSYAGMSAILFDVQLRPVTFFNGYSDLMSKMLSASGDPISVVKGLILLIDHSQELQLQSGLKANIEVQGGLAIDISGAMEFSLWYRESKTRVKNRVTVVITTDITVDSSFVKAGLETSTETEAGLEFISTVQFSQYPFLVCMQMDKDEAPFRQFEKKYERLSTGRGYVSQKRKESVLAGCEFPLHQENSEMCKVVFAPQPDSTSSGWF
MTP, sequence (P07237 18-508 partner, species assumed): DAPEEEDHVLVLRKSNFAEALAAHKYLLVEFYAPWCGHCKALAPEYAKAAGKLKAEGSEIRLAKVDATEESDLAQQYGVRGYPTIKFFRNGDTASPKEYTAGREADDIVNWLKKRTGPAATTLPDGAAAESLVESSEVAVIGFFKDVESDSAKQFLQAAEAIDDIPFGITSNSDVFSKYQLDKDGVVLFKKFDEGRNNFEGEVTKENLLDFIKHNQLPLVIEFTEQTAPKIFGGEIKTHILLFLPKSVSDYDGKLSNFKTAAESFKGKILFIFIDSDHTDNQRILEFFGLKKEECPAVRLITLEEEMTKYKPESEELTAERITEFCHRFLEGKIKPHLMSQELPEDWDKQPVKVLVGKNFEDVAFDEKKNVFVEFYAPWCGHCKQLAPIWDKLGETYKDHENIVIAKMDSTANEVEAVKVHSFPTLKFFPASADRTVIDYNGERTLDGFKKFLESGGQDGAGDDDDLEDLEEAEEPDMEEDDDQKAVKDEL
Experimental: MTP activity was measured using an assay similar to one described by J. R. Wetterau and D. B. Zilversmit in Chemistry and Physics of Lipids (1985) 38, 205-222. In order to prepare the donor and acceptor vesicles, the appropriate lipids in chloroform were put into a glass test tube and dried under a stream of nitrogen. A buffer containing 15 mM Tris-HCl (pH 7.5), 1 mM ethylenediamine tetra-acetic acid, 40 mM NaCl, 0.02% NaN3 (assay buffer) was added to the dried lipid. The mixture was vortexed briefly and the lipids were then allowed to hydrate for 20 minutes on ice. Vesicles were then prepared by bath sonication (using a Branson 2200 device) at room temperature for at most 15 minutes. Butylated hydroxytoluene was included in all vesicle preparations at a concentration of 0.1%. The lipid transfer assay mixture contained donor vesicles (40 nmole phosphatidylcholine, 7.5 mole % cardiolipin and 0.25 mole % glycerol tri[1-^14C]-oleate), acceptor vesicles (240 nmol phosphatidylcholine) and 5 mg bovine serum albumin in a total volume of 675 μl in a 1.5 ml microcentrifuge tube. Test compounds were added dissolved in dimethylsulfoxide (0.13% final concentration). After 5 minutes of pre-incubation at 37° C., the reaction was started by the addition of MTP in 100 μl of a dialysis buffer. The reaction was stopped by the addition of 400 μl […] (DEAE)-52 cellulose (Sephadex) pre-equilibrated in 15 mM Tris-HCl (pH 7.5), 1 mM ethylenediamine tetra-acetic acid and 0.02% NaN3 (1:1 volume/volume). The mixture was agitated for 4 minutes and centrifuged for 2 minutes at maximum speed in an Eppendorf centrifuge (4° C.) to pellet the DEAE-52-bound donor vesicles. An aliquot of the supernatant containing the acceptor liposomes was counted and the [^14C]-counts were used to calculate the percent triglyceride transfer from donor to acceptor vesicles.
Resulting IC50 values are enumerated in Table C.2 for some of the above-referred compounds.

- IC50 [1]: 64.6 nM
- melting point: 151 °C
- IC50 (MTP): 10.5 nM
Structure (SMILES): CCCOC(=O)C(c1ccccc1)N1CCN(c2ccc(NC(=O)c3ccccc3-c3ccc(C(F)(F)F)cc3)cc2)CC1 (stereo not drawn) [Co. No. 62, propyl-phenyl-4-[4-[[[4′-(trifluoromethyl)[1,1′-biphenyl]-2-yl]carbonyl]amino]phenyl]-1-piperazineacetate]
